In US11666636B2, “GLP-1R agonists and uses thereof” (priority 2017, dated 2023):

Legend:
[1] = 6 days after infection; vs vehicle
[2] = test system: serum inflammatory cytokines; conditions: rodent model; reported in literature; cited from earlier work
[3] = test system: liver inflammation, aortic atherosclerosis; conditions: rodent model; reported in literature; cited from earlier work

Compound: CCCCCCCCCCCCCCCC(=O)N[C@@H](CCC(=O)NCCCC[C@H](NC(=O)[C@H](C)NC(=O)[C@H](C)NC(=O)[C@H](CCC(N)=O)NC(=O)CNC(=O)[C@H](CCC(=O)O)NC(=O)[C@H](CC(C)C)NC(=O)[C@H](Cc1ccc(O)cc1)NC(=O)[C@H](CO)NC(=O)[C@H](CO)NC(=O)[C@@H](NC(=O)[C@H](CC(=O)O)NC(=O)[C@H](CO)NC(=O)[C@@H](NC(=O)[C@H](Cc1ccccc1)NC(=O)[C@@H](NC(=O)CNC(=O)[C@H](CCC(=O)O)NC(=O)[C@H](C)NC(=O)[C@@H](N)Cc1cnc[nH]1)[C@@H](C)O)[C@@H](C)O)C(C)C)C(=O)N[C@@H](CCC(=O)O)C(=O)N[C@@H](Cc1ccccc1)C(=O)N[C@H](C(=O)N[C@@H](C)C(=O)N[C@@H](Cc1c[nH]c2ccccc12)C(=O)N[C@@H](CC(C)C)C(=O)N[C@H](C(=O)N[C@@H](CCCNC(=N)N)C(=O)NCC(=O)N[C@@H](CCCNC(=N)N)C(=O)NCC(=O)O)C(C)C)[C@@H](C)CC)C(=O)O [GLP-1R agonist, liraglutide]
- plasma glucose levels [1]: no statistically significant changes
- plasma insulin levels [1]: no statistically significant changes

Compound: exendin-4
- serum inflammatory cytokines during LPS-induced endotoxemia [2]: reduced
- aortic atherosclerosis [3]: reduced
- liver inflammation [3]: reduced
